Test system: DU-145 cells
Type: cell-based, human

C=C1[C@@H](C)[C@H]2[C@H](Cc3ccccc3)NC(=O)[C@]23[C@H](OC(C)=O)/C=C/[C@@](C)(O)C(=O)[C@@H](C)C/C=C/[C@H]3[C@@H]1O [Cytochalasin-D]
effect on cell migration: did not migrate
